These results are taken from paper PMC6934184, “Selective DNA-PKcs inhibition extends the therapeutic index of localized radiotherapy and chemotherapy” (The Journal of Clinical Investigation, 2019).

As usually defined, the inhibition is the percentage by which the read-out fell short of the control. High values mean a strong effect, low ones a weak effect.

This assay addresses T1, PAK6 (Homo sapiens, UniProt Q9NQU5).
T1 construct: purchased Thermo Fisher Scientific (Life Technologies) SelectScreen
Put plainly: SelectScreen Z'LYTE. It counts as biochemical. In a few lines:
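Percent values come from Thermo SelectScreen profiling of NU5455, combining activity and binding assays. CSF1R was run in Z'LYTE format at Km app ATP, and CAMK1 in Adapta format with ATP listed at 10.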

T1 sequence (Q9NQU5 whole entry): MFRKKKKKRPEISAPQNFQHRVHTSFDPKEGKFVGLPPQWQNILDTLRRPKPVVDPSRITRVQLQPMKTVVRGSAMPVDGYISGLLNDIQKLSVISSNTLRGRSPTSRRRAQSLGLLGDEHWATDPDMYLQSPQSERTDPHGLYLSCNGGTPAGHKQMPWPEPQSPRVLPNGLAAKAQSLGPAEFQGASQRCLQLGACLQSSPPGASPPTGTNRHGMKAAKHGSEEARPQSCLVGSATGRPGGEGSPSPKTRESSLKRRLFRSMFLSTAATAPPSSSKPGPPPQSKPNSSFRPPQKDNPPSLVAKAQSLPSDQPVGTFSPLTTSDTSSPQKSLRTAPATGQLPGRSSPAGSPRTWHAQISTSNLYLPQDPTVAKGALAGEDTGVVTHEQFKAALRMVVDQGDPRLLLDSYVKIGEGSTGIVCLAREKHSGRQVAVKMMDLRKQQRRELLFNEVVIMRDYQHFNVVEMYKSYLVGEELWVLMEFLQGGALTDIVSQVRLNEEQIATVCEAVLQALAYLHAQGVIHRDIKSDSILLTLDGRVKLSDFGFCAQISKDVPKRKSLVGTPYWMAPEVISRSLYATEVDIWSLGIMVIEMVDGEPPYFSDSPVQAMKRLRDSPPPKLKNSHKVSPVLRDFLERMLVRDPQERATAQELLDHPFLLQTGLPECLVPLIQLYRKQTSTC

Regarding `CN(C(=O)CN1CCOCC1)c1ccc2sc3c(-c4cccc5c(=O)cc(N6CC7CCC(C6)O7)oc45)cccc3c2c1` [NU5455], the inhibition at 1 µM worked out at 3%.
